The values that follow come from EP0430991B1, “REAGENT FOR USE IN LD-1 ASSAY” (BOEHRINGER MANNHEIM CORPORATION, priority 1988, dated 1990).

Counter-ions that a name gives are not always drawn. Like-named read-outs stand apart in the source and are kept apart here.

In assay [1] the target is lactate dehydrogenase isoenzyme LD-1, H(4) (Homo sapiens, UniProt P07195). Put plainly: biochemical. As to conditions: for activity at 240000 µM: R1: guanadine thiocyanate 240 mM, Lithium L-Lactate 90mM, Tris 112.6 mM, pH 9.5, 37 degrees C; for LD-1 ISOENZYME REAGENT (Recovery): Lithium L-Lactate 90 mM, pH 9.6. The protocol: (§1) A. Materials: • 1. Reagent I. contains Lithium L-Lactate (90mM), guanadine thiocyanate (240 mM), Tris buffer (112.6 mM) at pH 9.5. • 2. Reagent II. contains Na(2)SO(4) (40 mM) and NAD (53.76 mM). Reaction mixture is a combination of 2.0 ml of R-1, 0.5 ml of R-2 which has a final reaction pH of 8.9 • 3. LD isoenzymes. Pure LD-1, LD-2, LD-3 and LD-5 individual isoenzymes were obtained from Aalto of Escondido, CA. Patient serum samples were obtained from a local hospital. B. Procedures Using Automated Analyzer Tests were performed on a Boehringer Mannheim/Hitachi 705 analyzer. The analyzer was given the following parameters: Assay Code: Rate - 20-26 (equivalent to 84.62 seconds to 198.70 seconds) Sample Volume: 12 µl R1 Volume: 400 µl R2 Volume: 100 µl Wavelength 1: 376 nm Wavelength 2: 340 nm Temperature: 37 degrees C. Factor: -10470 C. Manual Procedure Instrument: Spectrophotometer Temperature: 37 degrees C. Wavelength: 340 nm 1. Zero spectrophotometer with distilled or deionized water (DI HOH) 2. Pipette the following reagents in a cuvette:
(§2) 3. Mix and equilibrate sample to 37 degrees C. 4. Pipette and add 0.5 ml of R2 into sample test tube. Mix and measure optical density change at 340 nm for about 6 minutes. Calculate A/min. from 2 to 4 minutes. This is A/min for the sample. 5. Repeat steps 2 to 4 for the blank using 0.060 ml DI HOH as sample. This is A/min. for the blank. 6. Calculate for U/L (U/L = units of LDH activity per liter) U/L = (A/min Sample - A/min blank) x 1000 x 2.56 6.22 x light path x 0.06 [formula] D. Protocol for the Electrophoretic Analysis • 1. About 630 to 1,000 µl of individual LD-1, LD-2, LD-3, LD-4, LD-5 and abnormal patient serum samples were used in the electrophoretic analysis. • 2. 12 µl sample was added to […] R1 and incubated for 4 minutes at 37 degrees C to inhibit LD-2 to LD-5 to achieve an inhibited sample. • 3. Another 12 µl sample was added to 400 ul of Tris buffer (112.6 mM, pH at 8.9-9.0) and incubated for 4 minutes at 37 degrees C to achieve a control sample. • 4. Both the inhibited and control samples were applied to the Beckman Paragon Gel and the electrophoresis was run according to the Beckman procedure specified for the gel using a Beckman Paragon Electrophoresis instrument from Beckman Instrument. E. Method for Comparison Sixty-eight patient samples with LD-1 activity from 30 to 800 U/L were tested to compare the selectivity of R1 with the immunochemical separation method Roche's Isomune LD-1 reagent was employed for the immunochemical separation. F. Experimental Results 1. LD isoenzymes were tested using the Automated Analyzer procedure described above. […] LD-1 isoenzyme was tested at several concentrations. […]
(§3) A. Materials • 1. Reagent I: contains Lithium L-Lactate (90 mM), guanidine HCl (240 mM), sodium thiocyanate (240 mM) Tris buffer (119 mM) and Na(2)Co(3) (12.5 mM) at pH 9.6. • 2. Reagent II: contains Na(2)SO(4) (40 mM) and NAD (53.76 mM). Reaction mixture is a combination of 2.0 ml of R-1, 0.5 ml of R-2 which has final reaction pH at 8.9. • 3. LD isoenzymes: Same as described in Example 1. B. Procedures using Automated Analyzer Same as described in Example 1. C. Manual Procedure Same as described in Example 1. […]
(§4) A. Materials • 1. Reagent I: contains Lithium L-Lactate (90 mM), guanidine-HCL Na(2)Co(3) (12.5mM), Tris buffer (119 mM) at pH 9.6. • 2. Reagent II: contains Na(2)SO(4) (40 mM) and NAD (53.76 Mm). Reaction mixture is a combination of 2.0 ml of R-1, 0.5 ml of R-2 which has final reaction reaction pH at 8.9. • 3. LD isoenzymes: pure LD-1, LD-2, LD-3 and LD-5 individual isoenzymes are obtained from Aalto, Escondido, CA. Patient serum samples are obtained from a local hospital. B. Procedures using Automated Analyzer Same as described in Example 1. C. Manual Procedure Same as described in Example 1. […] Table
(§5) A. Materials • 1. Reagent I: contains Lithium L-Lactate (90 mM), NaSCN (240 mM) Na(2)Co(3) (12.5 mM), Tris buffer (119 mM) at pH 9.6. • 2.

Assay [2] has as its target T1, lactate dehydrogenase isoenzyme LD-2, H(3)M (Homo sapiens, UniProt P00338+P07195).
T1 construct: purchased Aalto, Escondido, CA
Put plainly: LD isoenzyme inactivation, automated analyzer rate assay (lactate/NAD, 340 nm). The assay is classed as biochemical. As to conditions: for LD-1 ISOENZYME REAGENT (Recovery): Lithium L-Lactate 90 mM, pH 9.6. The protocol: as §1, §2, §3, §4, §5

The target of assay [3] is lactate dehydrogenase isoenzyme LD-5, M(4) (Homo sapiens, UniProt P00338). The assay is described as above. The assay is classed as biochemical. As to conditions: for LD-1 ISOENZYME REAGENT (Recovery): Lithium L-Lactate 90 mM, pH 9.6. The protocol:
as §1, §2, §3, §4, §5

In assay [4] the target is lactate dehydrogenase isoenzyme LD-4, HM(3) (Homo sapiens, UniProt P00338+P07195). The assay is described as above. The class given is biochemical. As to conditions: R1: guanadine thiocyanate 240 mM, Lithium L-Lactate 90mM, Tris 112.6 mM, pH 9.5; 37 degrees C; read-out: Activity After R1 Treatment (% of Total LDH Reagent). The protocol: as §1
3. Mix and equilibrate sample to 37 degrees C. 4. Pipette and add 0.5 ml of R2 into sample test tube. Mix and measure optical density change at 340 nm for about 6 minutes. Calculate A/min. from 2 to 4 minutes. This is A/min for the sample. 5. Repeat steps 2 to 4 for the blank using 0.060 ml DI HOH as sample. This is A/min. for the blank. 6. […]

In assay [5] the target is T2, lactate dehydrogenase isoenzyme LD-3, H(2)M(2) (Homo sapiens, UniProt P00338+P07195).
T2 construct: purchased Aalto, Escondido, CA
Described as above. The class given is biochemical. The following applies: Lithium L-Lactate 90 mM, pH 9.6. The protocol: as §1, §2, §3, §4, §5

In assay [6] the test system is LD-2,3,4,5 (sample contains LD(2), LD(3), LD(4), and LD(5) isoenzymes with 43% of LD(4)). Described as above. As to conditions: Lithium L-Lactate 90 mM, pH 9.6. The assay is classed as biochemical, human. The protocol:
A. Materials: • 1. […] LD isoenzymes. […] Patient serum samples were obtained from a local hospital. […] Factor: -10470 C. Manual Procedure Instrument: Spectrophotometer Temperature: 37 degrees C. Wavelength: 340 nm 1. […] Pipette the following reagents in a cuvette:
3. Mix and equilibrate sample to 37 degrees C. 4. […] Calculate A/min. from 2 to 4 minutes. This is A/min for the sample. 5. […] This is A/min. for the blank. 6. […] F. Experimental Results 1. […] LD-1 isoenzyme was tested at several concentrations. […]
A. Materials • 1. […] LD isoenzymes: Same as described in Example 1. […] C. Manual Procedure Same as described in Example 1. […]
A. Materials • 1. […] Patient serum samples are obtained from a local hospital. […] C. Manual Procedure Same as described in Example 1. […] Table

[7] abbreviates: R1: guanadine thiocyanate 240 mM, Lithium L-Lactate 90mM, Tris 112.6 mM, pH 9.5, 37 degrees C, read-out: Activity After R1 Treatment (% of Total LDH Reagent).
The mark [8] stands for this setting: Reagent I: guanidine-HCL (concentration not given), no thiocyanate.
Where [9] appears, read: Reagent I: NaSCN 240 mM, no guanidine.

In the case of `N=C(N)N` [guanadine thiocyanate], the activity at 240000 µM amounted to 98% in assay [1] (pH 9.5, read-out: Activity After R1 Treatment (% of Total LDH Reagent), LD-1 sample 1x); 100% in assay [1] (pH 9.5, read-out: Activity After R1 Treatment (% of Total LDH Reagent), LD-1 sample 2x); 100% in assay [1] (pH 9.5, read-out: Activity After R1 Treatment (% of Total LDH Reagent), LD-1 sample 4x); 102% in assay [1] (pH 9.5, read-out: Activity After R1 Treatment (% of Total LDH Reagent), LD-1 sample 6x); 1.1% in assay [2] (setting [7]); 0% in assay [3] (setting [7]). Besides, in assay [4], the activity at 240000 µM was 0%.
On to `N=C(N)N` [GUANIDINE HCL, guanidine HCl], for which the “LD-1 ISOENZYME REAGENT (Recovery)” value in assay [1] (LD-1 sample 1X, Reagent I: guanidine-HCL (concentration not given), no thiocyanate) is listed as 202 (110 %); in assay [1] (LD-1 sample 2X, Reagent I: guanidine-HCL (concentration not given), no thiocyanate), 394 (107 %); in assay [1] (LD-1 sample 4X, Reagent I: guanidine-HCL (concentration not given), no thiocyanate), 759 (107 %); in assay [1] (LD-1 sample 6X, Reagent I: guanidine-HCL (concentration not given), no thiocyanate) it was 1123 (106 %); in assay [2] (setting [8]) it was 826 (106 %); in assay [5] (setting [8]), 1323 (102 %). Also, the “LD-1 ISOENZYME REAGENT (Recovery)” value was 159 ( 9.50%) in assay [3] (setting [8]) and 1102 ( 81.2 %) in assay [6] (setting [8]).
Turning to sodium thiocyanate [NaSCN], the “LD-1 ISOENZYME REAGENT (Recovery)” value is 252 (138 %) in assay [1] (LD-1 sample 1X, Reagent I: NaSCN 240 mM, no guanidine); 499 (136 %) in assay [1] (LD-1 sample 2X, Reagent I: NaSCN 240 mM, no guanidine); 964 (134 %) in assay [1] (LD-1 sample 4X, Reagent I: NaSCN 240 mM, no guanidine); 1421 (134 %) in assay [1] (LD-1 sample 6X, Reagent I: NaSCN 240 mM, no guanidine); 905 (116 %) in assay [2] (setting [9]); 1093 ( 85 %) in assay [5] (setting [9]). In addition, the “LD-1 ISOENZYME REAGENT (Recovery)” value in assay [3] (setting [9]) is recorded as 44 ( 2.6%); in assay [6] (setting [9]), 725 ( 53 %).
